The structures appear in SMILES notation. *1 amine or outer side, *2 acyl side, *3 side chain or, on linkers, in order; H or OH if unused. Where a SMILES comes first, the peptide text is derived from it. Side-chain parts run from the residue outwards. [ ]: non-standard residue; d: D form. The star is where a group is joined. C20 diacid = O=C(O)CCCCCCCCCCCCCCCCCCC(=O)*; C18 diacid = O=C(O)CCCCCCCCCCCCCCCCC(=O)*; γGlu = O=C(O)[C@H](CCC(=O)[*:2])N[*:1]; 4Pal = N[C@@H](Cc1ccncc1)C(=O)O; αMeL = CC(C)C[C@](C)(N)C(=O)O; Iva = CC[C@](C)(N)C(=O)O; AEEA = NCCOCCOCC(=O)O; Aib = CC(C)(N)C(=O)O

As a reminder, the EC50 is the concentration at which the effect is half-maximal.

Assay in all cases: cAMP functional assay (HTRF) in HEK293 cells in presence of 0.1% casein
What all share (format): cell-based
In general terms: TR-FRET usually uses a lanthanide donor and a delayed reading to cut background.

In assay [1] the target is T1, human glucose-dependent insulinotropic peptide receptor (GIPR) (Homo sapiens, UniProt P48546).
T1 construct: expressed in transfected cells; host or cells: HEK293
T1 sequence (P48546 22-466): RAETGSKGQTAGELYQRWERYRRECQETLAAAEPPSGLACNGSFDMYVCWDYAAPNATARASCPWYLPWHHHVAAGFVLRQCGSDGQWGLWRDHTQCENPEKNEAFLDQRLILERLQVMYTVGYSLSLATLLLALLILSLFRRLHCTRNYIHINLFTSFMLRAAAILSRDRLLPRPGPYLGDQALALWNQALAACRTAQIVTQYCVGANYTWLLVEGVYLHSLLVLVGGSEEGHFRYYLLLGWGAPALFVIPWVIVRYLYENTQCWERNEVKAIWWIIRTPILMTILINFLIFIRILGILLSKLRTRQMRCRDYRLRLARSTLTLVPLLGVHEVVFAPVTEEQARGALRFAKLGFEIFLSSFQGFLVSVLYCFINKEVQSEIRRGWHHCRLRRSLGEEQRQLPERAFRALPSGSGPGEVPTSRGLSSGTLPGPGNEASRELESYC
As to conditions: HEK293 cells expressing human GIPR, geometric mean, read-out: hGIPR cAMP Rel EC50 nM (SEM, n).

Assay [2] deals with T2, human GLP-1 receptor (GLP-1R) (Homo sapiens, UniProt P43220).
T2 construct: expressed in transfected cells; host or cells: HEK293
T2 sequence (P43220 24-463): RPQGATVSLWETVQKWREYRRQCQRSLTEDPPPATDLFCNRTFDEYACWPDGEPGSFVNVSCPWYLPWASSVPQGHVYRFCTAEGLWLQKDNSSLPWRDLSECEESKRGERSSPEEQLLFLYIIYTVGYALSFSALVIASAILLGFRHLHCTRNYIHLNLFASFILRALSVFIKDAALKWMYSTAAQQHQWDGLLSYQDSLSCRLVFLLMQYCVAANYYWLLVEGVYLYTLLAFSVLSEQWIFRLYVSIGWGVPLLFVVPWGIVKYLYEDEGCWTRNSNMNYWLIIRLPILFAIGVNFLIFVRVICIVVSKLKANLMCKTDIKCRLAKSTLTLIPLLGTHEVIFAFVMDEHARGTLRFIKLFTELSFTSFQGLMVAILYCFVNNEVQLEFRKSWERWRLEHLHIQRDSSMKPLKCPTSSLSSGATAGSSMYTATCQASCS
As to conditions: HEK293 cells expressing human GLP-1R, geometric mean, read-out: hGLP1R cAMP Rel EC50 nM (SEM, n).

Assay [3] concerns the target T3, human glucagon receptor (GcgR) (Homo sapiens, UniProt P47871).
T3 construct: expressed in transfected cells; host or cells: HEK293
Particulars: HEK293 cells expressing human GcgR, geometric mean, read-out: hGcgR cAMP Rel EC50 nM (SEM, n).

T3 sequence (P47871 26-477): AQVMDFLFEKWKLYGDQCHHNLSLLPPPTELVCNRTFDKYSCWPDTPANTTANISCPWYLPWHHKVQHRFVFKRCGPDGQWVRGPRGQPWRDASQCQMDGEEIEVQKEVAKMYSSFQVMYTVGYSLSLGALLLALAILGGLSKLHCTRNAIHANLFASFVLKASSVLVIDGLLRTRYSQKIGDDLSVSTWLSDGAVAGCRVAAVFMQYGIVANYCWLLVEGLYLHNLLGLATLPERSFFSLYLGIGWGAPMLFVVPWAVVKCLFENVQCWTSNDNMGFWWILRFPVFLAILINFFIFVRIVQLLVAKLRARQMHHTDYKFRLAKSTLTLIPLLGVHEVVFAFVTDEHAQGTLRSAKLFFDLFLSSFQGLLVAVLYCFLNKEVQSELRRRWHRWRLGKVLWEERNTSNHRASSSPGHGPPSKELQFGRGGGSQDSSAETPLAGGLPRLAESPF

As to `CC[C@H](C)[C@H](NC(=O)[C@H](CO)NC(=O)[C@H](Cc1ccc(O)cc1)NC(=O)[C@H](CC(=O)O)NC(=O)[C@H](CO)NC(=O)[C@@H](NC(=O)[C@H](Cc1ccccc1)NC(=O)[C@@H](NC(=O)CNC(=O)[C@H](CCC(=O)O)NC(=O)[C@@H](C)NC(=O)[C@@H](N)Cc1ccc(O)cc1)[C@@H](C)O)[C@@H](C)CC)C(=O)N[C@@H](CC(C)C)C(=O)N[C@@H](CC(C)C)C(=O)N[C@@H](CC(=O)O)C(=O)N[C@@H](CCCCN)C(=O)N[C@@H](CCCCNC(=O)COCCOCCNC(=O)COCCOCCNC(=O)CC[C@H](NC(=O)CCCCCCCCCCCCCCCCC(=O)O)C(=O)O)C(=O)N[C@@H](C)C(=O)N[C@@H](CCC(N)=O)C(=O)NC(C)(C)C(=O)N[C@@H](CC(=O)O)C(=O)N[C@@H](Cc1ccccc1)C(=O)N[C@H](C(=O)N[C@@H](CC(N)=O)C(=O)N[C@@H](Cc1c[nH]c2ccccc12)C(=O)N[C@@H](CC(C)C)C(=O)N[C@@H](CC(C)C)C(=O)N[C@@H](C)C(=O)N[C@@H](CCC(N)=O)C(=O)NCC(=O)N1CCC[C@H]1C(=O)N[C@@H](CO)C(=O)N[C@@H](CO)C(=O)NCC(=O)N[C@@H](C)C(=O)N1CCC[C@H]1C(=O)N1CCC[C@H]1C(=O)N1CCC[C@H]1C(=O)N[C@@H](CO)C(N)=O)C(C)C` [Example 2], the EC50 in assay [1] is 0.0123 nM; in assay [2], over 5000 nM; in assay [3], 608 nM.
In the case of `CC[C@H](C)[C@H](NC(=O)[C@H](CO)NC(=O)[C@H](Cc1ccc(O)cc1)NC(=O)[C@H](CC(=O)O)NC(=O)[C@H](CO)NC(=O)[C@@H](NC(=O)[C@](C)(CC)NC(=O)[C@@H](NC(=O)CNC(=O)[C@H](CCC(=O)O)NC(=O)C(C)(C)NC(=O)[C@@H](N)Cc1ccc(O)cc1)[C@@H](C)O)[C@@H](C)CC)C(=O)N[C@@](C)(CC(C)C)C(=O)N[C@@H](CC(C)C)C(=O)N[C@@H](CC(=O)O)C(=O)N[C@@H](CCCCN)C(=O)N[C@@H](CCCCNC(=O)COCCOCCNC(=O)COCCOCCNC(=O)CC[C@H](NC(=O)CCCCCCCCCCCCCCCCCCC(=O)O)C(=O)O)C(=O)N[C@@H](Cc1c[nH]cn1)C(=O)N[C@@H](CCC(N)=O)C(=O)NC(C)(C)C(=O)N[C@@H](CC(=O)O)C(=O)N[C@@H](Cc1ccccc1)C(=O)N[C@H](C(=O)N[C@@H](CCC(=O)O)C(=O)N[C@@H](Cc1ccncc1)C(=O)N[C@@H](CC(C)C)C(=O)N[C@@H](CC(C)C)C(=O)N[C@@H](CCC(=O)O)C(=O)NCC(=O)NCC(=O)N1CCC[C@H]1C(=O)N[C@@H](CO)C(=O)N[C@@H](CO)C(=O)NCC(=O)N[C@@H](C)C(=O)N1CCC[C@H]1C(=O)N1CCC[C@H]1C(=O)N1CCC[C@H]1C(=O)N[C@@H](CO)C(N)=O)C(C)C` [Example 74] (H-Y[Aib]EGT[Iva]ISDYSI[αMeL]LDKK([AEEA-AEEA-γGlu-C20 diacid])HQ[Aib]DFVE[4Pal]LLEGGPSSGAPPPS-NH2), the EC50 was 0.0167 nM in assay [1], over 5000 nM in assay [2] and 627 nM in assay [3].
The matching figures for `CC[C@H](C)[C@H](NC(=O)[C@H](CCCCN)NC(=O)[C@H](CC(=O)O)NC(=O)[C@H](CC(C)C)NC(=O)[C@](C)(CC(C)C)NC(=O)[C@@H](NC(=O)[C@H](CO)NC(=O)[C@H](Cc1ccc(O)cc1)NC(=O)[C@H](CC(=O)O)NC(=O)[C@H](CO)NC(=O)[C@@H](NC(=O)[C@H](Cc1ccccc1)NC(=O)[C@@H](NC(=O)CNC(=O)[C@H](CCC(=O)O)NC(=O)C(C)(C)NC(=O)[C@@H](N)Cc1ccc(O)cc1)[C@@H](C)O)[C@@H](C)CC)[C@@H](C)CC)C(=O)N[C@@H](CCCNC(=N)N)C(=O)N[C@@H](CCC(N)=O)C(=O)NC(C)(C)C(=O)N[C@@H](CC(=O)O)C(=O)N[C@@H](Cc1ccccc1)C(=O)N[C@H](C(=O)N[C@@H](CCC(=O)O)C(=O)N[C@@H](Cc1ccc(O)cc1)C(=O)N[C@@H](CCCCNC(=O)COCCOCCNC(=O)COCCOCCNC(=O)CC[C@H](NC(=O)CCCCCCCCCCCCCCCCCCC(=O)O)C(=O)O)C(=O)N[C@@H](CC(C)C)C(=O)N[C@@H](CCC(=O)O)C(=O)NCC(=O)NCC(=O)N1CCC[C@H]1C(=O)N[C@@H](CO)C(=O)N[C@@H](CO)C(=O)NCC(=O)N[C@@H](C)C(=O)N1CCC[C@H]1C(=O)N1CCC[C@H]1C(=O)N1CCC[C@H]1C(=O)N[C@@H](CO)C(N)=O)C(C)C` [Example 115] (H-Y[Aib]EGTFISDYSI[αMeL]LDKIRQ[Aib]DFVEYK([AEEA-AEEA-γGlu-C20 diacid])LEGGPSSGAPPPS-NH2): 0.0372 nM, over 5000 nM and over 5000 nM.
For `CC[C@H](C)[C@H](NC(=O)[C@H](CO)NC(=O)[C@H](Cc1ccc(O)cc1)NC(=O)[C@H](CC(=O)O)NC(=O)[C@H](CO)NC(=O)[C@@H](NC(=O)[C@H](Cc1ccccc1)NC(=O)[C@@H](NC(=O)CNC(=O)[C@H](CCC(=O)O)NC(=O)[C@@H](C)NC(=O)[C@@H](N)Cc1ccc(O)cc1)[C@@H](C)O)[C@@H](C)CC)C(=O)N[C@@H](CC(C)C)C(=O)N[C@@H](CC(C)C)C(=O)N[C@@H](CC(=O)O)C(=O)N[C@@H](CCCCN)C(=O)N[C@@H](CCCCNC(=O)COCCOCCNC(=O)COCCOCCNC(=O)CC[C@H](NC(=O)CCCCCCCCCCCCCCCCC(=O)O)C(=O)O)C(=O)N[C@@H](C)C(=O)N[C@@H](CCC(N)=O)C(=O)NC(C)(C)C(=O)N[C@@H](CC(=O)O)C(=O)N[C@@H](Cc1ccccc1)C(=O)N[C@H](C(=O)N[C@@H](CC(N)=O)C(=O)N[C@@H](Cc1ccncc1)C(=O)N[C@@H](CC(C)C)C(=O)N[C@@H](CC(C)C)C(=O)N[C@@H](C)C(=O)N[C@@H](CCC(N)=O)C(=O)NCC(=O)N1CCC[C@H]1C(=O)N[C@@H](CO)C(=O)N[C@@H](CO)C(=O)NCC(=O)N[C@@H](C)C(=O)N1CCC[C@H]1C(=O)N1CCC[C@H]1C(=O)N1CCC[C@H]1C(=O)N[C@@H](CO)C(N)=O)C(C)C` [Example 18] (H-Y[dA]EGTFISDYSILLDKK([AEEA-AEEA-γGlu-C18 diacid])AQ[Aib]DFVN[4Pal]LLAQGPSSGAPPPS-NH2) the same measures were 0.00656 nM, over 5000 nM and over 5000 nM.
The matching figures for `CC[C@H](C)[C@H](NC(=O)[C@H](CCCN)NC(=O)[C@H](CC(=O)O)NC(=O)[C@H](CC(C)C)NC(=O)[C@](C)(CC(C)C)NC(=O)[C@@H](NC(=O)[C@H](CO)NC(=O)[C@H](Cc1ccc(O)cc1)NC(=O)[C@H](CC(=O)O)NC(=O)[C@H](CO)NC(=O)[C@@H](NC(=O)[C@H](Cc1ccccc1)NC(=O)[C@@H](NC(=O)CNC(=O)[C@H](CCC(=O)O)NC(=O)C(C)(C)NC(=O)[C@@H](N)Cc1ccc(O)cc1)[C@@H](C)O)[C@@H](C)CC)[C@@H](C)CC)C(=O)N[C@@H](Cc1c[nH]cn1)C(=O)N[C@@H](CCC(N)=O)C(=O)NC(C)(C)C(=O)N[C@@H](CCC(=O)O)C(=O)N[C@@H](Cc1ccccc1)C(=O)N[C@H](C(=O)N[C@H](CCC(=O)O)C(=O)N[C@@H](Cc1ccc(O)cc1)C(=O)N[C@@H](CCCCNC(=O)COCCOCCNC(=O)COCCOCCNC(=O)CC[C@H](NC(=O)CCCCCCCCCCCCCCCCC(=O)O)C(=O)O)C(=O)N[C@@H](CC(C)C)C(=O)N[C@@H](CCC(=O)O)C(=O)NCC(=O)NCC(=O)N1CCC[C@H]1C(=O)N[C@@H](CO)C(=O)N[C@@H](CO)C(=O)NCC(=O)N[C@@H](C)C(=O)N1CCC[C@H]1C(=O)N1CCC[C@H]1C(=O)N1CCC[C@H]1C(=O)N[C@@H](CO)C(N)=O)C(C)C` [Example 7]: 0.0219 nM, over 5000 nM and over 5000 nM.

The values above are taken from patent publication US12723063B2, “GIPR-agonist compounds” (Eli Lilly and Company, priority 2019, dated 2026).
